Source: patent US7517998B2, “Non nucleoside reverse transcriptase inhibitors” (priority 2004, dated 2009)

Biological target: T1, K103NNY181C mutant reverse transcriptase (Human immunodeficiency virus type 1 group M subtype B, UniProt P04585, K690N/Y768C)
T1 construct: mutations that occur in the reverse transcriptase segment of the pol gene
Assay: Reverse transcriptase enzymatic assay (PicoGreen), K103N/Y181C mutant RT
Format: biochemical, HIV-1
Conditions: enzymatic assay of Example 24
Procedure, shortened: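 HIV-1 RT (2.5 nM final) pre-incubated 15 min at room temperature with inhibitor, then reacted 50 min at 37 °C with poly rC 45 nM, dG15 4.5 nM, dGTP 3.6 μM in Tris/HCl pH 7.8, 1% DMSO. Final inhibitor 10 μM to 0.508 nM; EDTA-quenched, PicoGreen fluorescence read at 485/520 nm.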

[1] = IC50 mut, mutant reverse transcriptase
[2] = IC50 mut, K103N/Y181C mutant reverse transcriptase

| Compound | IC50 [1] | IC50 [2] | also measured |
| --- | --- | --- | --- |
| CC(C)(C)c1ccc(-n2nnnc2SCC(=O)Nc2ccc(OCC(=O)NC[C@H]3CC[C@H](C(=O)O)CC3)cc2Cl)c(Cl)c1 [Compound 5031] | 118 nM | – | – |
| CC(C)(C#Cc1ccc(NC(=O)CSc2nnnn2-c2ccc(C3CC3)cc2Cl)c(Cl)c1F)OCCN1CCNCC1 [Compound 4176] | – | 108 nM | – |
| CN(C)CCCC(=O)NC(C)(C)C#Cc1ccc(NC(=O)CSc2nnnn2-c2cc(C(F)(F)F)ccc2Cl)c(Cl)c1F [Compound 4170] | – | 33.5 nM | – |
| CC(C)(C#Cc1ccc(NC(=O)CSc2nnnn2-c2ccc(C3CC3)cc2Cl)c(Cl)c1)OCCO [Compound 4098] | – | 16.5 nM | – |
| CC(C)(C)c1ccc(-n2nnnc2SCC(=O)Nc2ccc(-c3ccc(OCCN4CCCCC4)cc3)cc2Cl)c(Cl)c1 [Compound 2039] | 28 nM | – | – |
| CCOC(=O)NC(C)(C)C#Cc1ccc(NC(=O)CSc2nnnn2-c2ccc(C3CC3)cc2Cl)c(Cl)c1 [Compound 4081] | – | 19.5 nM | – |
| CC(C)(C)c1ccc(-n2nnnc2SCC(=O)Nc2ccc(C(=O)NC3CCN(Cc4ccccc4)CC3)cc2Cl)c(Cl)c1 [Compound 6009] | 73 nM | – | – |
| Cc1ccc(-n2nnnc2SCC(=O)Nc2ccc(-c3ccc(C(=O)O)cc3)cc2Cl)c(Cl)c1 [Compound 2002] | 53 nM | – | – |
| CC(C)(C)c1ccc(-n2nnnc2SCC(=O)Nc2ccc(-c3ccc(OCCN4CCCC4)cc3)cc2Cl)c(Cl)c1 [Compound 2029] | 19 nM | – | – |
| O=C(CSc1nnnn1-c1ccc(C2CC2)cc1Cl)Nc1ccc(C(=O)NCc2cc[n+]([O-])cc2)cc1Cl [Compound 6034] | 44.5 nM | – | – |
| CC(C)(C#Cc1ccc(NC(=O)CSc2nnnn2-c2ccc(C3CC3)cc2Cl)c(Cl)c1)OCCN1CCS(=O)(=O)CC1 [Compound 4241] | – | 30.5 nM | – |
| CC(C)(C)c1ccc(-n2nnnc2SCC(=O)Nc2ccc(NC(=O)c3cccc(C(=O)O)c3)cc2Cl)c(Cl)c1 [Compound 7027] | – | – | IC50 (IC50 mut (nM), mutant (K103N/Y181C) reverse transcriptase): 134 nM |
| CC(C)(C#Cc1ccc(NC(=O)CSc2nnnn2-c2cc(C(F)(F)F)ccc2Cl)c(Cl)c1F)C(=O)NCCN1CCCC1 [Compound 4160] | – | 114 nM | – |
| CC(C)(C#Cc1ccc(NC(=O)CSc2nnnn2-c2ccc(C3CC3)cc2Cl)c(Cl)c1)NC(=O)N1CCNCC1 [Compound 4228] | – | 30 nM | – |
| CC(C)c1ccc(-n2nnnc2SCC(=O)Nc2ccc(-c3ccc(C(C)(C)C(=O)O)cc3)cc2Cl)c(Cl)c1 [Compound 2055] | 56 nM | – | – |
| CN(CCc1cc[n+]([O-])cc1)C(=O)COc1ccc(NC(=O)CSc2nnnn2-c2ccc(C3CC3)cc2Cl)c(Cl)c1 [Compound 5041] | 132 nM | – | – |
| CN(CCc1ccncc1)C(=O)COc1ccc(NC(=O)CSc2nnnn2-c2ccc(C3CC3)cc2Cl)c(Cl)c1 [Compound 5037] | 174 nM | – | – |
| CC(C)(O)C#Cc1ccc(NC(=O)CSc2nnnn2-c2cc(Cl)c(C3CC3)cc2Cl)c(Cl)c1 [Compound 4070] | – | 82.5 nM | – |
| O=C(CSc1nnnn1-c1ccc(C2CC2)cc1Cl)Nc1ccc(C#CCCN2CCCC2)cc1Cl [Compound 4132] | – | 49.5 nM | – |
| CC(C)(C)c1ccc(-n2nnnc2SCC(=O)Nc2ccc(OCC(=O)NCc3ccco3)cc2Cl)c(Cl)c1 [Compound 5002] | 137 nM | – | – |
| C[C@H](CC(=O)O)C(=O)NC(C)(C)C#Cc1ccc(NC(=O)CSc2nnnn2-c2ccc(C3CC3)cc2Cl)c(Cl)c1 [Compound 4239] | – | 8.2 nM | – |
| CC(C)c1ccc(-n2nnnc2SCC(=O)Nc2ccc(-c3ccc(OCCN4CCCC4)cc3)cc2Cl)c(Cl)c1 [Compound 2056] | 29 nM | – | – |
| CC(C)(C#Cc1ccc(NC(=O)CSc2nnnn2-c2cc(C(C)(C)C)cc(Br)c2Cl)c(Cl)c1)NC(=O)c1cc[n+]([O-])cc1 [Compound 4223] | – | 30 nM | – |
| CN(O)C(=O)COC(C)(C)C#Cc1ccc(NC(=O)CSc2nnnn2-c2ccc(C(C)(C)C)cc2Cl)c(Cl)c1 [Compound 4050] | – | 66 nM | – |
| Cc1nnc(SCC(=O)Nc2ccc(-c3ccc(OCCN4CCCCC4)cc3)cc2Cl)n1-c1ccc(C2CC2)cc1Cl [Compound 1013] | 75 nM | – | – |
| C/C(=C\c1ccc(NC(=O)CSc2nnnn2-c2ccc(C3CC3)cc2Cl)c(Cl)c1)C(=O)O [Compound 3041] | 94 nM | – | – |
